Structures are written as SMILES. Structures can show the parent of a compound that is named as a salt.

The text below walks through data of US10604509B2, “Nrf2 regulators” (GlaxoSmithKline Intellectual Property Development Limited, priority 2015, dated 2020).

In the first experiment the test system is NQO1 specific enzyme activity in BEAS-2B cells. Description: BEAS-2B NQO1 MTT assay. To be noted: BEAS-2B cells, 48 hours with compound, MTT readout; read-out: EC50 of NQO1 specific activity induction. In kind it is cell-based. The procedure, abridged: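 NQO1 specific activity, an NRF2 activation marker, read kinetically as absorbance change at 570 nm for 30 min after MTT cocktail addition to crude lysates of BEAS-2B cells exposed 48 h to compound. Three-parameter fit of Delta OD/min against log concentration gives EC50; lysate portion used for Cell Titer Glo.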
For orientation: Formazan colour is commonly taken as a measure of viable cells.
As usually defined, the EC50 is the midpoint of the concentration-response curve. For the compound `Cc1ccc([C@@H](CC(=O)O)c2ccc3c(nnn3C)c2C)cc1CN1Cc2cc(F)ccc2OC(C)(C)C1` [Example 57, (R)-3-(1,4-Dimethyl-1H-benzo[d][1,2,3]triazol-5-yl)-3-(3-((7-fluoro-2,2-dimethyl-2,3-dihydrobenzo[f][1,4]oxazepin-4(5H)-yl)methyl)-4-methylphenyl)propanoic acid, 0.7formic acid salt], the EC50 lay within 10 to 100 nM.

Staying with this experiment, now noted: Homo sapiens, BEAS-2B, 48 h, BEAS-2B cells, 48 hours with compound, MTT readout; read-out: EC50 of NQO1 specific activity induction.
With `CC[C@@H]1CN(Cc2cc(C(CC(=O)O)c3cnc4c(nnn4C)c3C)ccc2C)Cc2ccccc2O1` (stereo partly drawn) [Example 47, 3-(3,7-Dimethyl-3H-[1,2,3]triazolo[4,5-b]pyridin-6-yl)-3-(3-(((R)-2-ethyl-2,3-dihydrobenzo[f][1,4]oxazepin-4(5H)-yl)methyl)-4-methylphenyl)propanoic Acid, Trifluoroacetic Acid Salt], the EC50 was in the range of 100 to 1000 nM.

On to `CC[C@@H]1CN(Cc2cc(C(CC(=O)O)c3ncc4c(nnn4C)c3C)ccc2C)Cc2ccccc2O1` (stereo partly drawn) [Example 48, 3-(3,7-Dimethyl-3H-[1,2,3]triazolo[4,5-c]pyridin-6-yl)-3-(3-(((R)-2-ethyl-2,3-dihydrobenzo[f][1,4]oxazepin-4(5H)-yl)methyl)-4-methylphenyl)propanoic Acid, Trifluoroacetic Acid Salt], for which the EC50 was 100 to 1000 nM.

Turning to `CC[C@@H]1CN(Cc2cc([C@H](CC(=O)O)c3ccc4c(nnn4C)c3C)ccc2C)Cc2ccccc2O1` [Example 49, (S)-3-(1,4-Dimethyl-1H-benzo[d][1,2,3]triazol-5-yl)-3-(3-(((R)-2-ethyl-2,3-dihydrobenzo[f][1,4]oxazepin-4(5H)-yl)methyl)-4-methylphenyl)propanoic Acid, Formic Acid Salt], the EC50 was 100 to 1000 nM.

For the compound `CC[C@@H]1CN(Cc2cc([C@H](CC(=O)O)c3ccc4c(nnn4C)c3C)ccc2C)Cc2cnccc2O1` [Example 50, (S)-3-(1,4-Dimethyl-1H-benzo[d][1,2,3]triazol-5-yl)-3-(3-(((R)-2-ethyl-2,3-dihydropyrido[3,4-f][1,4]oxazepin-4(5H)-yl)methyl)-4-methylphenyl)propanoic acid, formic acid salt], the concentration giving a half-maximal response (EC50) was in the range of 10 to 100 nM.

Turning to `CC[C@@H]1CN(Cc2cc([C@@H](CC(=O)O)c3ccc4c(nnn4C)c3C)ccc2C)Cc2ccccc2O1` [Example 51, (R)-3-(1,4-Dimethyl-1H-benzo[d][1,2,3]triazol-5-yl)-3-(3-(((R)-2-ethyl-2,3-dihdyrobenzo[f][1,4]oxazepin-4(5H)-yl)methyl)-4-methylphenyl)propanoic acid, formic acid salt], the 50% effective concentration (EC50) lay within 100 to 1000 nM.

For the compound `CC[C@@H]1CN(Cc2cc([C@H](CC(=O)O)c3ccc4c(nnn4CC)c3F)ccc2C)Cc2cccc(F)c2O1` [Example 52, (S)-3-(1-Ethyl-4-fluoro-1H-benzo[d][1,2,3]triazol-5-yl)-3-(3-(((R)-2-ethyl-9-fluoro-2,3-dihdyrobenzo[f][1,4]oxazepin-4(5H)-yl)methyl)-4-methylphenyl)propanoic acid, 0.5formic acid salt], the EC50 is 1 to 10 nM.

On to `CC[C@@H]1CN(Cc2cc([C@H](CC(=O)O)c3ccc4c(nnn4CC)c3F)ccc2C)Cc2cnccc2O1` [Example 53, (S)-3-(3-(((R)-2-Ethyl-2,3-dihydropyrido[3,4-f][1,4]oxazepin-4(5H)-yl)methyl)-4-methylphenyl)-3-(1-ethyl-4-fluoro-1H-benzo[d][1,2,3]triazol-5-yl)propanoic acid], for which the EC50 was in the range of 100 to 1000 nM.

On to `CCn1nnc2c(Cl)c([C@@H](CC(=O)O)c3ccc(C)c(CN4Cc5ccccc5OC(C)(C)C4)c3)ccc21` [Example 54, (S)-3-(4-Chloro-1-ethyl-1H-benzo[d][1,2,3]triazol-5-yl)-3-(3-((2,2-dimethyl-2,3-dihydrobenzo[f][1,4]oxazepin-4(5H)-yl)methyl)-4-methylphenyl)propanoic acid, hydrochloride], for which the 50% effective concentration (EC50) lay in the range of 10 to 100 nM.

On to `CCn1nnc2c(Cl)c([C@H](CC(=O)O)c3ccc(C)c(CN4Cc5ccccc5OC(C)(C)C4)c3)ccc21` [Example 55, (R)-3-(4-Chloro-1-ethyl-1H-benzo[d][1,2,3]triazol-5-yl)-3-(3-((2,2-dimethyl-2,3-dihydrobenzo[f][1,4]oxazepin-4(5H)-yl)methyl)-4-methylphenyl)propanoate, Sodium salt], for which the EC50 lay in the range of 10 to 100 nM.

For `CC[C@@H]1CN(Cc2cc([C@H](CC(=O)O)c3ccc4c(nnn4CC)c3Cl)ccc2C)Cc2ccccc2O1` [Example 56, (S)-3-(4-Chloro-1-ethyl-1H-benzo[d][1,2,3]triazol-5-yl)-3-(3-(((R)-2-ethyl-2,3-dihydrobenzo[f][1,4]oxazepin-4(5H)-yl)methyl)-4-methylphenyl)propanoic acid], the EC50 is 10 to 100 nM.

`CC[C@@H]1CN(Cc2cc([C@H](CC(=O)O)c3ccc4c(nnn4C)c3C)ccc2C)Cc2cccc(F)c2O1` [Example 58, (S)-3-(1,4-Dimethyl-1H-benzo[d][1,2,3]triazol-5-yl)-3-(3-(((R)-2-ethyl-9-fluoro-2,3-dihydrobenzo[f][1,4]oxazepin-4(5H)-yl)methyl)-4-methylphenyl)propanoic acid, Sodium salt]: the EC50 fell in the range of 10 to 100 nM.

On to `Cc1ccc([C@@H](CC(=O)O)c2ccc3c(nnn3C)c2C)cc1CN1Cc2ccc(F)cc2OC(C)(C)C1` [Example 59, (R)-3-(1,4-Dimethyl-1H-benzo[d][1,2,3]triazol-5-yl)-3-(3-((8-fluoro-2,2-dimethyl-2,3-dihydrobenzo[f][1,4]oxazepin-4(5H)-yl)methyl)-4-methylphenyl)propanoic acid], for which the EC50 is 10 to 100 nM.

With `CC[C@@H]1CN(Cc2cc([C@@H](CC(=O)O)c3ccc4c(nnn4C)c3C)ccc2C)Cc2cccc(F)c2O1` [Example 60, (R)-3-(1,4-Dimethyl-1H-benzo[d][1,2,3]triazol-5-yl)-3-(3-(((R)-2-ethyl-9-fluoro-2,3-dihydrobenzo[f][1,4]oxazepin-4(5H)-yl)methyl)-4-methylphenyl)propanoic acid, Sodium salt], the concentration giving a half-maximal response (EC50) lay in the range of 10 to 100 nM.

Regarding `Cc1ccc([C@H](CC(=O)O)c2ccc3c(nnn3C)c2C)cc1CN1Cc2cc(F)ccc2OC(C)(C)C1` [Example 62, (S)-3-(1,4-Dimethyl-1H-benzo[d][1,2,3]triazol-5-yl)-3-(3-((7-fluoro-2,2-dimethyl-2,3-dihydrobenzo[f][1,4]oxazepin-4(5H)-yl)methyl)-4-methylphenyl)propanoic acid, 1.5formic acid salt], the EC50 lay within 10 to 100 nM.

Regarding `Cc1ccc([C@H](CC(=O)O)c2ccc3c(nnn3C)c2C)cc1CN1Cc2ccc(F)cc2OC(C)(C)C1` [Example 63, (S)-3-(1,4-Dimethyl-1H-benzo[d][1,2,3]triazol-5-yl)-3-(3-((8-fluoro-2,2-dimethyl-2,3-dihydrobenzo[f][1,4]oxazepin-4(5H)-yl)methyl)-4-methylphenyl)propanoic acid], the concentration for a half-maximal effect (EC50) was in the range of 10 to 100 nM.

As to `CCn1nnc2c(F)c([C@@H](CC(=O)O)c3ccc(C)c(CN4Cc5ccccc5OC(C)(C)C4)c3)ccc21` [Example 64, (S)-3-(3-((2,2-Dimethyl-2,3-dihydrobenzo[f][1,4]oxazepin-4(5H)-yl)methyl)-4-methylphenyl)-3-(1-ethyl-4-fluoro-1H-benzo[d][1,2,3]triazol-5-yl)propanoic Acid], the EC50 was 10 to 100 nM.
